Experimental data: patent US20120309821A1, “Use of epigallocatechin-3-gallate for immune regulation” (NATIONAL DEFENSE MEDICAL CENTER, priority 2011, published 2012)

Experiments:
Assay type in all cases: in vivo, mouse
[1] = test system: NZB/W F1 lupus-prone mice; assay: Urine protein time course in NZB/W F1 lupus-prone mice; conditions: 120 mg/kg EGCG by gavage daily from 12 weeks of age; weeks 28-34; vs disease control mice
Method: (§1) Female NZB/W F1 mice were purchased from the Animal Center of the National Taiwan University (Taipei, Taiwan, ROC) and, at 12 weeks of age, were divided into two groups, one of which was given normal saline and served as the disease control, while the other was given 120 mg/kg body weight of EGCG (Ryss Lab, Inc., CA, USA) (this dose is a slight modification of those used in previous in vivo studies) by gavage daily till sacrificed at 34-weeks-old. 8-Week-old NZB/W F1 female mice (prior to onset of autoantibody production) were used as normal controls. Urine samples were collected in metabolic cages every 2 weeks and urine protein levels were measured, and serum samples were used to measure serum levels of blood urea nitrogen (BUN) and creatinine (Cr) as described previously (Ka, S. M. et al. Decoy receptor 3 ameliorates an autoimmune crescentic glomerulonephritis model in mice. J Am Soc Nephrol 18:2473-2485; 2007). All animal experiments were performed upon the ethical approval of the Institutional Animal Care and Use Committee of the National Defense Medical Center, Taiwan and according to the ethical rules in the NIH Guide for the Care and Use of Laboratory Animals.

[2] = test system: NLRP3 mRNA; assay: Renal NLRP3 mRNA by real-time PCR; conditions: 120 mg/kg by gavage daily; week 34; increase seen in disease control
Method: as §1

[3] = test system: IL-18; assay: Serum IL-18 ELISA; conditions: 120 mg/kg by gavage daily; week 34; vs disease control mice
Method: as §1, with “Animals. Serum levels of IL-1β and IL-18 were measured using commercial ELISA kits (BD Biosciences) according to the manufacturer's instructions.” for “Animals.”

[4] = test system: NF-κB p65; assay: IHC of NF-κB p65 in kidney; conditions: 120 mg/kg by gavage daily; week 34; increase seen in disease control
Method: as §1

[5] = test system: NZB/W F1 lupus-prone mice; assay: Serum BUN and creatinine (renal function) in NZB/W F1 mice; conditions: 120 mg/kg by gavage daily; week 34; vs disease control mice
Method: as §1

[6] = test system: NAD(P)H oxidase subunit p47phox; assay: Western blot of cytosolic p47phox in kidney; conditions: 120 mg/kg by gavage daily, week 34, increase seen in disease control
Method: as §1, with “Animals. […] Antibodies to histone H3 (Cell Signaling) or β-actin (Santa Cruz) were used as internal controls for the nuclear and cytosolic target proteins, respectively.” for “Animals.”

[7] = test system: IgG immune complex deposition in the glomerulus; assay: Kidney IgG immune complex deposits by immunofluorescence; conditions: 120 mg/kg by gavage daily; week 34; disease control vs EGCG-treated mice
Method: as §1, with “Animals. For immune complex detection, frozen renal tissues were prepared and incubated with fluorescein isothiocyanate (FITC)-conjugated goat anti-mouse IgG antibodies (Cappel, N.C., USA). […] Scoring of staining was recorded.” for “Animals.”

[8] = test system: NF-κB p65; assay: Renal nuclear NF-κB p65 activation ELISA (TransAM); conditions: 120 mg/kg by gavage daily; week 34; increase seen in disease control
Method: as §1, with “All animal experiments were performed upon the ethical approval of the Institutional Animal Care and Use Committee of the National Defense Medical Center, Taiwan and according to the ethical rules in the NIH Guide for the Care and Use of Laboratory Animals.” left out
Nuclear protein from renal cortex was extracted using a Nuclear Extract Kit (Active Motif) according to the manufacturer's instructions and nuclear NF-κB p65 activation quantified using an ELISA-based TransAM NF-κB kit (Active Motif, Tokyo, Japan) according to the manufacturer's protocol by reading the absorbance on an ELISA plate reader (Bio-Tek, VT, USA) at 450 nm with a reference wavelength of 655 nm.

## Epigallocatechin-3-gallate [EGCG]
[1]
  urine protein levels: markedly inhibited
[2]
  levels of NLRP3 mRNA in kidney tissues: inhibited
[3]
  serum levels of IL-18: significantly lower
[4]
  NF-κB p65 activity in the kidney (IHC, nuclear location): markedly inhibited
[5]
  serum levels of BUN: significantly lower
  serum levels of Cr: significantly lower
[6]
  levels of NAD(P)H oxidase subunit p47phox: abolished
[7]
  IgG immune complex deposition in the glomerulus: no significant difference
[8]
  nuclear NF-κB p65 levels (ELISA, renal nuclear protein extracts): significantly inhibited
